Laboratory results: PMC3600725 (CPT: Pharmacometrics & Systems Pharmacology, 2013)
Entries after “also recorded” stand apart in the source; their conditions may differ. Where two headings read alike, the source gives them in different places. Each block holds one compound with its values, some of them ahead of it.

Columns and labels:
[1] = tested on: human sandwich-cultured hepatocytes (SCH); experiment: Accumulation, BEI and in vitro clearance in human SCH; type: in vitro ADME
[2] = cited from earlier work
[3] = type: in vivo, human
[4] = cited from earlier work; remark: listed apart in the source
MRP2 = MRP2 (Homo sapiens, UniProt Q92887); conditions: 50 µmol/l MK571; cited from earlier work
[5] = Estimated portal vein concentration of ritonavir; set-up: species or system human
[6] = from human SCH data, well-stirred model, mean ± SD of n=3 donors
[7] = 2 × 300 mg oral ritonavir 14 and 2 h before, mean ± SD, n = 3
[8] = ^99mTc–mebrofenin alone (control), mean ± SD, n = 8

Chain of MRP2 (Q92887 whole entry): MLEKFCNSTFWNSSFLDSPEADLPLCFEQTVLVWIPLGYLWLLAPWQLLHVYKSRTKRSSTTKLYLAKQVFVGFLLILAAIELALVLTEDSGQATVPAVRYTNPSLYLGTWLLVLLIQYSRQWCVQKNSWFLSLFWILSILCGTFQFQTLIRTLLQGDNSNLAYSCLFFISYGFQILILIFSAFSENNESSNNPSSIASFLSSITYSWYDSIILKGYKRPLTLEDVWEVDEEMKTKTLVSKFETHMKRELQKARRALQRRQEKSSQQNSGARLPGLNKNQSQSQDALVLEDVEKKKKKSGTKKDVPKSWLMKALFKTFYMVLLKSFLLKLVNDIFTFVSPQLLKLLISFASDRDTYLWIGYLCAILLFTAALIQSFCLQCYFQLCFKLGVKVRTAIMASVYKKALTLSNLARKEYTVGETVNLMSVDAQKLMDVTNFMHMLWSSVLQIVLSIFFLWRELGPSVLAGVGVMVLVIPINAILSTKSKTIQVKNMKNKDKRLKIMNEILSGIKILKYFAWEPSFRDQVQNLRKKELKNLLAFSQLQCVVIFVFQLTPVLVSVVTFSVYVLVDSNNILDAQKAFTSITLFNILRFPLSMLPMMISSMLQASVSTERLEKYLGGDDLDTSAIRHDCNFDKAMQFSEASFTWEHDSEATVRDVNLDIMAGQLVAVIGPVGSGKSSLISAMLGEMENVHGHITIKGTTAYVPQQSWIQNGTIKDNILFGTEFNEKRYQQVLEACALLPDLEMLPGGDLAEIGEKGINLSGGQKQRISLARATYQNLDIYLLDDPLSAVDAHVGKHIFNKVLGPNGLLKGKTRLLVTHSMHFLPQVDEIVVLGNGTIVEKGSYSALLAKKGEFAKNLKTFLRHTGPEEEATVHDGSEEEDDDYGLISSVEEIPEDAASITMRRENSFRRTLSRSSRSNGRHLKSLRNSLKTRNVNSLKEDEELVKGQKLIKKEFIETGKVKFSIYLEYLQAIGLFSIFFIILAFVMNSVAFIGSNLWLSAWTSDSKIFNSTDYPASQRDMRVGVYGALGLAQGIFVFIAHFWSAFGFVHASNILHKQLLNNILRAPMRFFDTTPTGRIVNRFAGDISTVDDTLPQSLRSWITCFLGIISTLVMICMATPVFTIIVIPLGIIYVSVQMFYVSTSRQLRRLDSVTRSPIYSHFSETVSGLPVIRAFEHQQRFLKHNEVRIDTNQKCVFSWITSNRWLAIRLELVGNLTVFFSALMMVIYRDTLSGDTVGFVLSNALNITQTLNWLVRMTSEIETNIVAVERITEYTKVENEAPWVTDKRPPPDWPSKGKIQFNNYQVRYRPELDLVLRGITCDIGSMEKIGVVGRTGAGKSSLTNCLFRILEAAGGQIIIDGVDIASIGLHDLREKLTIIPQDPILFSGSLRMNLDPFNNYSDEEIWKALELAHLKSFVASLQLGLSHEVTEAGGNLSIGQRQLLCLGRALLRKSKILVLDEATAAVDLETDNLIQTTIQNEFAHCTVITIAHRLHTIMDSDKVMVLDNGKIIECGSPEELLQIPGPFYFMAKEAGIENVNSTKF

CLbiliary, Predicted In Vivo Clearance [1, 6]: 4.4 ± 1.5 mL/min/kg
CLuptake, Predicted In Vivo Clearance [1, 6]: 10.6 ± 3.1 mL/min/kg
In vitro intrinsic CLuptake lower than semi-PBPK CLuptake,h ([1]; human SCH vs Table 2 estimate): ~ 50 fold
CLuptake, In Vitro Intrinsic Clearance ([1]; human SCH, mean ± SD of n=3 donors): ~ 24 mL/min/kg
AUC0–∞ (blood) [3, 7]: 4,464 ± 1,861 nCi·min/ml
Biliary recovery [3, 7]: 72 ± 2 % Dose
Biliary recovery ([3]; 2 h after single 200 mg oral ritonavir, mean ± SD, n = 7): 59 ± 11 % Dose
AUC0–∞ (blood) [3, 8]: 1,970 ± 311 nCi·min/ml
Biliary recovery [3, 8]: 75 ± 12 % Dose
CLbiliary [3, 8]: 12.5 ± 2.5 mL/min/kg
Urinary recovery ([3]; all groups, unaffected by ritonavir treatment): ~ 1 % of the administered dose
Hepatic extraction ratio (CLtotal/Qh) ([3]; control subjects, mean ± SD): 0.80 ± 0.16
Structure (SMILES): Cc1cc(C)c(NC(=O)CN(CC(=O)[O-])CC(=O)[O-])c(C)c1Br.Cc1cc(C)c(NC(=O)CN(CC(=O)[O-])CC(=O)[O-])c(C)c1Br.[99Tc+4] [^99mTc–mebrofenin, ^99mTechnetium–mebrofenin]
Hepatic extraction, previous reports [2]: ~ 100%
Change in AUCblood,0-∞ (systemic exposure) ([3]; 2 × 300 mg ritonavir as compared with control): significantly greater, by approximately twofold; also recorded: twofold increase
Hepatic elimination half-life, previous reports [4]: ~ 15 min
Time of maximum liver concentration, reported value [4]: 11 min

Structure (SMILES): CN(C)C(=O)CCSC(SCCC(=O)O)c1cccc(/C=C/c2ccc3ccc(Cl)cc3n2)c1 (stereo not shown) [MK571]
Reduction of ATP-dependent transport of ^99mTc–mebrofenin (MRP2 vesicles) (MRP2): 88 ± 2%

Total cellular accumulation of ritonavir (Ccell,total) ([1]; human SCH): up to 100 µmol/l
Maximum estimated portal vein concentration [5]: up to 45 µmol/l
Structure (SMILES): CC(C)c1nc(CN(C)C(=O)N[C@H](C(=O)N[C@@H](Cc2ccccc2)C[C@H](O)[C@H](Cc2ccccc2)NC(=O)OCc2cncs2)C(C)C)cs1 [Ritonavir]
